Data as given in patent US20080131406A1, “Angiotensin I Derivatives” (NATIONAL UNVERSITY OF SINGAPORE, priority 2005, published 2008).

Assays:
[1] = test system: experimentally-induced cardiac hypertrophic rats; assay: Cardiac hypertrophy induced by abdominal aorta coarctation in rats; assay type: in vivo, Sprague Dawley (SD) rats; details: for Hypertrophy Index (ventricle weight in mg/body weight in g): aorta-coarcted rats, mean ± SEM, 10 rats
Method: The experimental protocol for induction of cardiac hypertrophy in rats was carried out as described by Everett et al (Hypertension, 23:587-592 (1994)). In this procedure, each rat was anaesthetized with 7% w/v chloral hydrate (0.35 g/kg, intraperitoneally). An incision was made in the ventral abdominal wall to access the suprarenal portion of the abdominal aorta. This portion of the abdominal aorta was dissected free and a blunt 23-guage needle was placed adjacent to the aorta. A ligature was placed around the blunt needle and the aorta. The blunt needle was then removed, leaving the aorta constricted to the size of the needle. The resulting coarctation resisted the normal flow of blood from the heart to the lower portion of the body and placed an extra load on the heart. This extra load causes hypertrophy of the heart, especially the left ventricle.
Following surgery, each animal was placed in a cage. The animals had access to water and rat chow ad libitum. The animals were randomly divided into the control group and treatment group. Each group consisted of 10 animals. The treatment group was orally administered various doses of angiotensin IV (95-380 nmoles/kg/day or 74-294 μg/kg/day) dissolved in 0.5 ml saline for four days commencing on the day of surgery. Control animals with coarcted abdominal aorta were administered saline instead of the angiotensin IV solution. Sham animals were animals that underwent the same surgical operations but their aortas were not coarcted.
On the fifth day following surgery, animals were anaesthetised as before. The heart of each animal was then excised, the ventricles dissected and the weight of the ventricles was determined. The index of the ventricle weight (in mg) over the body weight of the animal (in g) was taken as the index of hypertrophy. For sham-operated animals the index was around 2.6, for aorta-coarcted animas the index was above 3.7.
Data were expressed as mean ±SEM. Significant differences were determined by one-way ANOVA and post hoc Newman Kleuf test. The accepted level of significance was p<0.05. […] The effect was dose-dependent and significant anti-cardiac hypertrophic action was brought about by an oral dose of 190 nmoles/kg/day (or 147 μg/kg/day).

[2] = test system: neointima formation in catheter-injured carotid artery; assay: Neointima formation after balloon catheter injury of the left carotid artery in rats; assay type: in vivo, Sprague Dawley (SD) rats; details: for % of Lumen Occlusion by Neointima (in catheter-injured carotid artery): mean ± SEM, 6 rats
From the text: SD rats were subjected to left carotid artery injury by the balloon technique according to the method described by Indolfi et al (Circulation, 92:1230-1235 (1995)). In this procedure, rats were anesthetized with chloral hydrate (0.35 g/kg) and a balloon catheter (2F Fogarty, Edwards Laboratories) was introduced through the left external carotid artery into the common carotid artery. The balloon was inflated to a pressure of 2.2 kg/cm^2 by compressed carbogen gas mixture (95% O2 and 5% CO2) and passed three times (three cycles) along the common carotid artery. The catheter was removed, the left external carotid artery was ligated, and the wound was closed. Formation of neointima in the catheter-injured carotid artery occurred and slowed considerably after 14 days (Clowes and Clowes, Lab. Invest., 52:611-616 (1985)). The right common carotid artery was left intact and served as the control artery.
Following the surgery, each animal was placed in a cage. The animals had access to water and rat chow ad libitum. The animals were randomly divided into the control group and treatment group. Each group consisted of 6 animals. The treatment group was orally administered various doses of angiotensin IV (60-360 nmoles/kg/day or 46.5-279 μg/kg/day) dissolved in 0.5 ml saline for 13 days commencing on the day of surgery. Control animals were balloon catheterized animals that were administered saline instead of the angiotensin IV solution.
On the fourteenth day following balloon catheterization, animals were anesthetized as before and both the left and right common arteries of each rat were fixed by perfusion at 120 mm Hg with 100 ml of saline followed by 250 ml of 0.1 M phosphate buffer (pH 7.4) containing 4% paraformaldehyde and 1% glutaralaldehyde and processed for paraffin embedment. Sections of 10 μm thickness were prepared and stained with toluidine blue. Twenty of such sections were cut from the midportion of the artery towards the distal end and used for morphometric evaluation of neointima formation. The area of the medial smooth muscle cells, lumen, and neointima of each section was morphometrically quantitated using an image analysis system consisting of a BX40 light microscope (Olympus, Japan) fitted with a KY-F55B color video camera (JVC, Japan) and a Pentium 166 MHz/MMX microcomputer (Datamini, Singapore) installed with an Image Pro Plus 3.0 System (Media Cybernetics, USA) for Windows 95™. The extent of neointima formation was expressed as a percentage of occlusion of the lumen by the neointima.

## CC[C@H](C)[C@H](NC(=O)[C@H](Cc1ccc(O)cc1)NC(=O)[C@@H](N)C(C)C)C(=O)N[C@@H](Cc1cnc[nH]1)C(=O)N1CCC[C@H]1C(=O)N[C@@H](Cc1ccccc1)C(=O)O [angiotensin IV]
[1]; 95 nmole/kg/day oral for 4 days
  Hypertrophy Index (ventricle weight in mg/body weight in g): 3.73 ± 0.04
[1]; 190 nmole/kg/day oral for 4 days, significantly different from Control (p < 0.05)
  Hypertrophy Index (ventricle weight in mg/body weight in g): *3.23 ± 0.07
[1]; 380 nmole/kg/day oral for 4 days, significantly different from Control (p < 0.05)
  Hypertrophy Index (ventricle weight in mg/body weight in g): *3.40 ± 0.07
[1]; oral, 4 days, effect dose-dependent, or 147 μg/kg/day
  oral dose bringing about significant anti-cardiac hypertrophic action: 190 nmol/kg/day
[2]; 60 nmole/kg/day oral for 13 days
  % of Lumen Occlusion by Neointima (in catheter-injured carotid artery): 52 ± 5%
[2]; 120 nmole/kg/day oral for 13 days
  % of Lumen Occlusion by Neointima (in catheter-injured carotid artery): 48 ± 1%
[2]; 240 nmole/kg/day oral for 13 days, significantly different from Control (p < 0.05)
  % of Lumen Occlusion by Neointima (in catheter-injured carotid artery): *43 ± 2%
[2]; 360 nmole/kg/day oral for 13 days, significantly different from Control (p < 0.05)
  % of Lumen Occlusion by Neointima (in catheter-injured carotid artery): *44 ± 2%
[2]; oral for 13 days, action dose-dependent, or 186 μg/kg/day
  oral dose bringing about maximum anti-neointima action: 240 nmol/kg/day
[2]; oral, 13 days, catheter-injured carotid artery
  effect on the thickness of the medial muscle layer: no significant effect
